Legend:
human GPR52 = biological target: T1, human GPR52 (Homo sapiens, UniProt Q9Y2T5); test: HTRF assay for direct cAMP measurement; type: cell-based; settings: CHO-K1 cells stably expressing recombinant human GPR52, mean EC50
T1 construct: expressed in transfected cells; host or cells: CHO-K1
Protocol: Homogeneous Time-Resolved Fluorescence (HTRF) Assay for Direct cAMP Measurement.
HTRF cAMP assays were performed using commercially available assay kits according to the manufacturer's instructions (cAMP Dynamic 2 Assay Kit; #62AM4PEJ, Cisbio Bioassays, Bedford, Mass.). An aliquot of CHO-K1 cells stably expressing recombinant human GPR52 is thawed and resuspended in cell buffer (1×PBS (w/o Ca^2+/Mg^2+)) at a density of 4×10^5 cells per mL Test compounds were solubilized in DMSO to 10 mM stock solutions and serially diluted in DMSO using 6-fold dilutions to generate 8-point dose response curves. These serially diluted samples were then diluted 1:50 in compound dilution buffer (1×PBS (w/o Ca^2+/Mg^2+) containing 0.5 mM IBMX, 0.1% BSA) to achieve a 4× stock. The diluted compounds were transferred (5 μL per well) in duplicate to the 384-well assay plate (Optiplate #6007290, PerkinElmer, Waltham, Mass.). Both a positive (reference compound) and negative (non-stimulated vehicle) control are included in each assay run in column 23. The cell suspension was subsequently dispensed into the 384-well assay plates at 15 μL per well (6000 cells) such that the compound was diluted to 1×. […] After a one-hour incubation at room temperature, 10 μL of cAMP D2 reagent followed by 10 μL of cryptate reagent (provided in the Cisbio kit) was added to each well. Plates were then incubated at room temperature for one hour prior to reading. Time-resolved fluorescence measurements were collected on an EnVision® HTRF plate reader (PerkinElmer, Waltham, Mass.). Counts from the plate reader were fit to the cAMP standard curve included on each plate to determine the amount of cAMP in each test well. The % control was calculated based on the positive control set at […]. Dose-response curves were generated from the cAMP data and analyzed using a nonlinear least squares curve-fitting program to obtain EC50 values.

aldehyde oxidase [1] = biological target: T2, aldehyde oxidase (Homo sapiens, UniProt Q06278); test: In vitro metabolite profiling in primary human hepatocytes with or without hydralazine; type: in vitro ADME; settings: for % Parent of drug-related material: 1 μM test compound; for Contribution of AO to oxidative metabolism: sum of AO-formed metabolites
T2 construct: endogenous in cells; host or cells: cryopreserved primary human hepatocytes
T2 sequence (Q06278 1-1338): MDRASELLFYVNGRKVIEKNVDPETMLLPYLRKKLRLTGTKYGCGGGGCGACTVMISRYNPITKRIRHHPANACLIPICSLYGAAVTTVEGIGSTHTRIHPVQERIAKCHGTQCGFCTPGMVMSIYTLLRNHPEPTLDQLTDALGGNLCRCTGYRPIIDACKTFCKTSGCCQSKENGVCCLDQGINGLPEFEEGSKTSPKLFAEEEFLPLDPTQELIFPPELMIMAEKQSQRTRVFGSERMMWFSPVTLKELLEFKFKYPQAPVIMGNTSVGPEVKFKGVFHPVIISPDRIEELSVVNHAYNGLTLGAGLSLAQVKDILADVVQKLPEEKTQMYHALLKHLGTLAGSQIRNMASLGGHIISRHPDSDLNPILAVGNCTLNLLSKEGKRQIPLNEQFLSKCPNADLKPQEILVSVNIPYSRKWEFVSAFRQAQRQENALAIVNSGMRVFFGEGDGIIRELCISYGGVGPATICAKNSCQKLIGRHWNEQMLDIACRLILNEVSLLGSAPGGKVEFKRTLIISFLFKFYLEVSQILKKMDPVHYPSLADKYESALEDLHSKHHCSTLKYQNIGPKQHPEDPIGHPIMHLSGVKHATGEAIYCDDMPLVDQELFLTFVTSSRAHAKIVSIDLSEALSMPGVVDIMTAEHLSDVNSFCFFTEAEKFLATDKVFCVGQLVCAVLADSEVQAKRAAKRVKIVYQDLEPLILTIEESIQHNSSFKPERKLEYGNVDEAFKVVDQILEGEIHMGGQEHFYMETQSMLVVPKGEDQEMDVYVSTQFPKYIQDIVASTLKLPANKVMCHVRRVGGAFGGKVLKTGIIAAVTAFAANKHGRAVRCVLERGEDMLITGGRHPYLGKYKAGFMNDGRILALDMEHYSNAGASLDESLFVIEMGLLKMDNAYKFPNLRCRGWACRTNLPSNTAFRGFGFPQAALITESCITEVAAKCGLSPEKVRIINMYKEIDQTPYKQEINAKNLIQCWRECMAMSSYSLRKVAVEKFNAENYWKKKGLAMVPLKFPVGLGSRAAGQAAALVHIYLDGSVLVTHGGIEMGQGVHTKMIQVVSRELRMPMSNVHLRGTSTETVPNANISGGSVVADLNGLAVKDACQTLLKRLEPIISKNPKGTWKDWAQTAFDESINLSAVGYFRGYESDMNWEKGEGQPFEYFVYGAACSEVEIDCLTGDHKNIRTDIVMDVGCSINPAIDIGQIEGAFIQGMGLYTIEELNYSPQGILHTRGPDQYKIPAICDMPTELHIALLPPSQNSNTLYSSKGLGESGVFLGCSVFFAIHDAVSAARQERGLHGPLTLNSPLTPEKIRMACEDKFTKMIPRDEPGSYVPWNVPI
Protocol: (§1) In vitro metabolite profiling to evaluate the involvement of aldehyde oxidase in addition to CYP-mediated metabolic pathways is based on the semiquantitative analysis of the formation of oxygenated metabolites in primary human hepatocytes and the reduction in their formation in presence of the specific aldehyde oxidase inhibitor hydralazine. If respective hydralazine-inhibitable metabolites are also formed in human liver cytosol incubations in the absence of any cofactors, involvement of aldehyde oxidase in the metabolism of the respective compound is considered likely.
The involvement of aldehyde oxidase in metabolic transformation of the test compound is investigated using primary human hepatocytes in suspension in presence or absence of the specific aldehyde oxidase inhibitor hydralazine. After recovery from cryopreservation, human hepatocytes are incubated in Dulbecco's modified eagle medium supplemented with 3.5 μg glucagon/500 ml, 2.5 mg insulin/500 ml and 3.75 mg/500 ml hydrocortisone) containing 5% human serum.
Following a 30 min preincubation in a cell culture incubator (37° C., 10% CO2) with or without 50 μM hydralazine, test compound solution is spiked into the hepatocyte suspension to obtain a final cell density of 1.0*10^6 to 4.0*10^6 cells/mi (depending on the metabolic turnover rate of the compound observed with primary human hepatocytes), a final test compound concentration of 1 μM, and a final DMSO concentration of 0.05%.
The cells are incubated for six hours (incubator, horizontal shaker) and samples are removed from the incubation after 0, 0.5, 1, 2, 4 or 6 hours, depending on the metabolic turnover rate. Samples are quenched with acetonitrile and pelleted by centrifugation. The supernatant is transferred to a 96-deepwell plate, evaporated under nitrogen and resuspended prior to bioanalysis by liquid chromatography-high resolution mass spectrometry for identification of putative metabolites.

aldehyde oxidase [2] = biological target: T2, aldehyde oxidase; test: Metabolite formation in pooled human liver cytosol incubations without cofactors; type: in vitro ADME; set-up: key: yes: Metabolite is formed in presence of human liver cytosol in the absence of cofactors as indication of aldehyde oxidase mediated metabolism; Metabolite is not detected in cytosol incubations; settings: human liver cytosol 5 mg/ml, 10 μM test compound, 60 min, metabolite of the same line
Protocol: as §1
The involvement of aldehyde oxidase in the metabolic transformation of the test compound is confirmed at 37° C. with pooled human liver cytosol fractions. The incubations, conducted at a final incubation volume of 60 μl per time point, are composed of phosphate buffer (100 mM, pH 7.4), magnesium chloride (5 mM), and human liver cytosol (5 mg/ml). Following a short preincubation period at 37° C., the reactions are initiated by addition of the test compound, resulting in a final concentration of 10 μM. After 0 and 60 minutes, the incubations are terminated by transferring an aliquot into organic solvent, followed by centrifugation (10000 g, 5 min). The resulting supernatant is used for bioanalysis by liquid chromatography-high resolution mass spectrometry for identification of putative metabolites.

T1 sequence (Q9Y2T5 whole entry): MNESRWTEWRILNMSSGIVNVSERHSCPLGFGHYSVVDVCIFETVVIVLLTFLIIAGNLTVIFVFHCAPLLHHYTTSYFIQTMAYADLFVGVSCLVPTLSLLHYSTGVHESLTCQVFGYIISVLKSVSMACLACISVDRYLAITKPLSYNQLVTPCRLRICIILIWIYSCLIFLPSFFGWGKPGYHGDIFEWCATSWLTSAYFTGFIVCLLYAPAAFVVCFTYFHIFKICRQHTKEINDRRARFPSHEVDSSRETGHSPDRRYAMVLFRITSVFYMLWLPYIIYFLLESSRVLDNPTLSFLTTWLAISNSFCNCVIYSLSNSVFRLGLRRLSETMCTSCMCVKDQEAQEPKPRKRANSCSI

EC50 (human GPR52)	% Parent of drug-related material (aldehyde oxidase [1])	Contribution of AO to oxidative metabolism (aldehyde oxidase [1])	Formation in human liver cytosol incubations [yes/no] (aldehyde oxidase [2])	Structure (SMILES)
6 nM	86%	28%	yes	Cc1cc(NC(=O)c2nccnc2N2CC(Oc3cc(F)cc(C(F)F)c3)C2)cnn1 [Example 11]
3 nM	93%	56%	yes	Cc1cc(NC(=O)c2nccnc2N2CC(Oc3ccc(F)c(F)c3)C2)cnn1 [Example 12]
9 nM	15%	15%	yes	Cc1cc(NC(=O)c2nccnc2N2CC(Oc3cc(F)cc(F)c3)C2)cnn1 [Example 13]
4 nM	94%	22%	yes	Cc1cc(NC(=O)c2nccnc2N2CC(Oc3cc(F)c(F)c(Cl)c3)C2)cnn1 [Example 14]
5 nM	71%	71%	yes	Cc1cc(NC(=O)c2nccnc2N2CC(Oc3cc(F)c(F)c(F)c3)C2)cnn1 [Example 15]

Structure (SMILES)	EC50 (human GPR52)	% Parent of drug-related material (aldehyde oxidase [1])	Contribution of AO to oxidative metabolism (aldehyde oxidase [1])	Formation in human liver cytosol incubations [yes/no] (aldehyde oxidase [2])
CCc1cc(NC(=O)c2nccnc2N2CC(Oc3ccc(F)c(F)c3)C2)cnn1 [Example 21]	2 nM	80%	67%	yes
Cc1cc(NC(=O)c2nccnc2N2CC(Oc3ccc(F)c(F)c3)C2)ncn1 [Example 29]	5 nM	96%	36%	yes

— patent US11780827B2, “Substituted 3-phenoxyazetidin-1-yl-pyrazines” (Boehringer Ingelheim International GmbH, priority 2020, dated 2023)
